Data published in patent US20140005163A1 (NOVARTIS AG, priority 2010, published 2014).
≈ marks a conversion by molar mass, not a printed value. Like-named read-outs stand apart in the source and are kept apart here.

Assays:
[1] = system: PKB Ser473 phosphorylation in Rat1-myr-HA-p110 delta cells; experiment: Reverse protein array assay, PKB Ser473 phosphorylation in Rat1-myr-p110 delta cells; type: cell-based; details: read-out: p-PKB IC50
How it was run: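 Cells: Rat1-myr-HA-p110 alpha/beta/delta, seeded ≥20 h. Lysis on ice 10 min; reverse-phase protein array, 4 lysate dilutions; fluorescence read, relative intensity.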

Solubility at pH 6.8 = type: physicochemical
How it was run: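 Solubility was measured at pH 6.8 following the cited Zhou et al. (2007) procedure.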

mTOR = molecular target: T1, mTOR (Homo sapiens, UniProt P42345); experiment: Biochemical assay for m-TOR by TR-FRET; details: 8 μM ATP, 400 nM GFP-4EBP1, 0.5 nM mTOR
T1 construct: purchased Invitrogen Corporation (Carlsbad/CA, USA) PV4753
T1 sequence (P42345 1360-2549 limits assumed): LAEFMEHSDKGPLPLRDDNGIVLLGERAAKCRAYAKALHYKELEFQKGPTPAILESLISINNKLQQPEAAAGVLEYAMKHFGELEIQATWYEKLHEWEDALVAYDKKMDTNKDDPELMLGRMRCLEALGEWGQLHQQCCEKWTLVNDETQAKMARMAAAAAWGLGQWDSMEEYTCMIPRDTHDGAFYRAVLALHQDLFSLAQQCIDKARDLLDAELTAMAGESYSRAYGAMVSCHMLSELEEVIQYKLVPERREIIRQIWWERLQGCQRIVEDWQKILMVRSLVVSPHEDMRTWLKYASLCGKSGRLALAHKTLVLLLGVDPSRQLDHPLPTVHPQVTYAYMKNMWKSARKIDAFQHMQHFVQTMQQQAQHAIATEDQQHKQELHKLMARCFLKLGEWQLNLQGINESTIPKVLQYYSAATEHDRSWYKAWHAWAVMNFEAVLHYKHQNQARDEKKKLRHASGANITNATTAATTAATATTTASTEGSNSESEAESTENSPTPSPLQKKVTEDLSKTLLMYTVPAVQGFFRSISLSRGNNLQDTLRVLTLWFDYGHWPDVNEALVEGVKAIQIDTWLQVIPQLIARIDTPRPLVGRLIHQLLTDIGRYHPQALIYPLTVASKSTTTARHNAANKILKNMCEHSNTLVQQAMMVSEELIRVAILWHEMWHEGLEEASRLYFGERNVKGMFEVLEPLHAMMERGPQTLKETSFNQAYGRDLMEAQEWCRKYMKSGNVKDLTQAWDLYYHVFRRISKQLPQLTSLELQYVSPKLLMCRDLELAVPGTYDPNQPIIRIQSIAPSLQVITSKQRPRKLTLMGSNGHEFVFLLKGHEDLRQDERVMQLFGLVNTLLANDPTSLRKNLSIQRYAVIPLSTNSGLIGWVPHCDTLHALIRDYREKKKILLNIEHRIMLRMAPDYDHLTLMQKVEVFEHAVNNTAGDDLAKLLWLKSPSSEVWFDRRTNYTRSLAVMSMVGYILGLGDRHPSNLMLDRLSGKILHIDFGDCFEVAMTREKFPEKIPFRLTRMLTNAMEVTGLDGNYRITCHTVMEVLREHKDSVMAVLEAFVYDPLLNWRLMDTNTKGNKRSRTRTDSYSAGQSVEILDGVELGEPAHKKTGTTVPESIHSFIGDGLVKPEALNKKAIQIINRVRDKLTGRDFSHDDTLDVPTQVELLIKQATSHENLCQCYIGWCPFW
How it was run: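 mTOR (0.5 nM final) phosphorylated GFP-4EBP1 (400 nM final) with ATP (8 μM final) at rt in 50 mM HEPES pH 7.5, 10 mM MnCl2, 50 mM NaCl, 1 mM EGTA, 1 mM DTT. EDTA stop with Tb3+-anti-p4EBP1 [pThr46] antibody (0.5 nM); TR-FRET read 15 min later.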

[2] = pH 6.8, aqueous buffer, thermodynamic from solid, read-out: solubility

Structure (SMILES) | IC50 [1] [nM] | solubility (Solubility at pH 6.8; pH 6.8) [µg/mL] | IC50 (mTOR) [nM] | solubility (Solubility at pH 6.8; [2]) [µg/mL]
COc1ccc(-c2ccc3ncc4c(c3c2)n(-c2ccnn2C)c(=O)n4C)cc1OC [Example 1.3, 8-(3,4-Dimethoxy-phenyl)-3-methyl-1-(2-methyl-2H-pyrazol-3-yl)-1,3-dihydro-imidazo[4,5-c]quinolin-2-one] | 140 | 2 (≈ 4.81 µM) | 132 | 
COc1ccc(-c2ccc3ncc4c(c3c2)n(-c2cn(C)nc2C)c(=O)n4C)cc1OC [Example 1.8, 8-(3,4-Dimethoxy-phenyl)-1-(1,3-dimethyl-1H-pyrazol-4-yl)-3-methyl-1,3-dihydro-imidazo[4,5-c]quinolin-2-one] | 14 |  | 6 | 10 (≈ 23.3 µM)
COc1ccc(-c2ccc3ncc4c(c3c2)n(-c2cc(C)nn2C)c(=O)n4C)cn1 [Example 2.3, 1-(2,5-Dimethyl-2H-pyrazol-3-yl)-8-(6-methoxy-pyridin-3-yl)-3-methyl-1,3-dihydro-imidazo[4,5-c]quinolin-2-one] | 240 |  | 96 | 7 (≈ 17.5 µM)
COc1ccc(-c2ccc3ncc4c(c3c2)n(-c2cn(C(C)C)nc2C)c(=O)n4C)cn1 [Example 2.8, 1-(1-Isopropyl-3-methyl-1H-pyrazol-4-yl)-8-(6-methoxy-pyridin-3-yl)-3-methyl-1,3-dihydro-imidazo[4,5-c]quinolin-2-one] | 105 | 2 (≈ 4.67 µM) | 33 | 
CCOc1ccc(-c2ccc3ncc4c(c3c2)n(-c2ccnn2CC)c(=O)n4C)cn1 [Example 3.4, 8-(6-Ethoxy-pyridin-3-yl)-1-(2-ethyl-2H-pyrazol-3-yl)-3-methyl-1,3-dihydro-imidazo[4,5-c]quinolin-2-one] | 418 | 2 (≈ 4.83 µM) | 161 | 
CCOc1ccc(-c2ccc3ncc4c(c3c2)n(-c2cn(CC)nc2C)c(=O)n4C)cn1 [Example 3.5, 8-(6-Ethoxy-pyridin-3-yl)-1-(1-ethyl-3-methyl-1H-pyrazol-4-yl)-3-methyl-1,3-dihydro-imidazo[4,5-c]quinolin-2-one] | 137 |  | 17 | 4 (≈ 9.33 µM)
CCOc1ccc(-c2ccc3ncc4c(c3c2)n(-c2cnn(C)c2C)c(=O)n4C)cn1 [Example 3.6, 1-(1,5-Dimethyl-1H-pyrazol-4-yl)-8-(6-ethoxy-pyridin-3-yl)-3-methyl-1,3-dihydro-imidazo[4,5-c]quinolin-2-one] | 232 | 2 (≈ 4.83 µM) | 191 | 
Cc1nn(C(C)C)cc1-n1c(=O)n(C)c2cnc3ccc(-c4ccc(N(C)C)nc4)cc3c21 [Example 4.1, 8-(6-Dimethylamino-pyridin-3-yl)-1-(1-isopropyl-3-methyl-1H-pyrazol-4-yl)-3-methyl-1,3-dihydro-imidazo[4,5-c]quinolin-2-one] | 59 |  | 30 | 336 (≈ 761 µM)
CCn1cc(-n2c(=O)n(C)c3cnc4ccc(-c5cnc(N(C)C)nc5)cc4c32)c(C)n1 [Example 6.4, 8-(2-Dimethylamino-pyrimidin-5-yl)-1-(1-ethyl-3-methyl-1H-pyrazol-4-yl)-3-methyl-1,3-dihydro-imidazo[4,5-c]quinolin-2-one] | 62 |  | 33 | 36 (≈ 84 µM)
CNC(=O)c1ccc(-c2ccc3ncc4c(c3c2)n(-c2cn(C(C)C)nc2C)c(=O)n4C)cn1 [Example 15.3, 5-[1-(1-Isopropyl-3-methyl-1H-pyrazol-4-yl)-3-methyl-2-oxo-2,3-dihydro-1H-imidazo[4,5-c]quinolin-8-yl]-pyridine-2-carboxylic acid methylamide] | 100 |  | 12 | 5 (≈ 11 µM)
Cc1nn(C)cc1-n1c(=O)n(C)c2cnc3ccc(-c4ccc(CO)nc4)cc3c21 [Example 16.2, 1-(1,3-Dimethyl-1H-pyrazol-4-yl)-8-(6-hydroxymethyl-pyridin-3-yl)-3-methyl-1,3-dihydro-imidazo[4,5-c]quinolin-2-one] | 151 |  | 23 | 102 (≈ 255 µM)
COCCOc1ccc(-c2ccc3ncc4c(c3c2)n(-c2cn(C)nc2C)c(=O)n4C)cn1 [Example 18, 1-(1,3-Dimethyl-1H-pyrazol-4-yl)-8-[6-(2-methoxy-ethoxy)-pyridin-3-yl]-3-methyl-1,3-dihydro-imidazo[4,5-c]quinolin-2-one] | 314 |  | 123 | 240 (≈ 540 µM)
CCOc1ccc(-c2ccc3ncc4c(c3c2)n(-c2cn(CC)nc2C)c(=O)n4C)cc1OCC [Example 27.1, 8-(3,4-Diethoxy-phenyl)-1-(1-ethyl-3-methyl-1H-pyrazol-4-yl)-3-methyl-1,3-dihydro-imidazo[4,5-c]quinolin-2-one] | 56 | 2 (≈ 4.24 µM) | 49 | 
CCOc1cc(-c2ccc3ncc4c(c3c2)n(-c2cn(CC)nc2C)c(=O)n4C)ccc1OC [Example 28.1, 8-(3-Ethoxy-4-methoxy-phenyl)-1-(1-ethyl-3-methyl-1H-pyrazol-4-yl)-3-methyl-1,3-dihydro-imidazo[4,5-c]quinolin-2-one] | 45 |  | 16 | 9 (≈ 19.7 µM)
CCOc1cc(-c2ccc3ncc4c(c3c2)n(-c2c(C)nn(C)c2C)c(=O)n4C)ccc1OC [Example 28.2, 8-(3-Ethoxy-4-methoxy-phenyl)-3-methyl-1-(1,3,5-trimethyl-1H-pyrazol-4-yl)-1,3-dihydro-imidazo[4,5-c]quinolin-2-one] | 212 |  | 549 | 3 (≈ 6.56 µM)
Cc1nn(CC(=O)N(C)C)c(C)c1-n1c(=O)n(C)c2cnc3ccc(-c4cncc(OC5CCC5)c4)cc3c21 [Example 60.2, 2-{4-[8-(5-Cyclobutoxy-pyridin-3-yl)-3-methyl-2-oxo-2,3-dihydro-imidazo[4,5-c]quinolin-1-yl]-3,5-dimethyl-pyrazol-1-yl}-N,N-dimethyl-acetamide] |  |  | 703 | 76 (≈ 145 µM)

Further lines, results first:

IC50 [1] [nM] | solubility (Solubility at pH 6.8; pH 6.8) [µg/mL] | IC50 (mTOR) [nM] | solubility (Solubility at pH 6.8; [2]) [µg/mL] | Structure (SMILES)
24 | 2 (≈ 4.51 µM) | 13 |  | CCOc1cc(-c2ccc3ncc4c(c3c2)n(-c2cn(C)nc2C)c(=O)n4C)ccc1OC [Example 28.3, 1-(1,3-Dimethyl-1H-pyrazo1-4-yl)-8-(3-ethoxy-4-methoxy-phenyl)-3-methyl-1,3-dihydro-imidazo[4,5-c]quinolin-2-one]
38 | 2 (≈ 4.51 µM) | 7 |  | CCOc1ccc(-c2ccc3ncc4c(c3c2)n(-c2cn(C)nc2C)c(=O)n4C)cc1OC [Example 29.3, 1-(1,3-Dimethyl-1H-pyrazol-4-yl)-8-(4-ethoxy-3-methoxy-phenyl)-3-methyl-1,3-dihydro-imidazo[4,5-c]quinolin-2-one]
155 |  | 54 | 9 (≈ 18.5 µM) | CCn1cc(-n2c(=O)n(C)c3cnc4ccc(-c5ccc(OCCOC)c(OC)c5)cc4c32)c(C)n1 [Example 30.2, 1-(1-Ethyl-3-methyl-1H-pyrazol-4-yl)-8-[3-methoxy-4-(2-methoxy-ethoxy)-phenyl]-3-methyl-1,3-dihydro-imidazo[4,5-c]quinolin-2-one]
193 | 2 (≈ 5.19 µM) | 28 |  | Cc1nn(C)cc1-n1c(=O)n(C)c2cnc3ccc(-c4cccc(O)c4)cc3c21 [Example 32.1, 1-(1,3-Dimethyl-1H-pyrazol-4-yl)-8-(3-hydroxy-phenyl)-3-methyl-1,3-dihydro-imidazo[4,5-c]quinolin-2-one]
22 |  | 51 | 3 (≈ 6.68 µM) | Cc1nn(C)cc1-n1c(=O)n(C)c2cnc3ccc(-c4cccc5c4OC(F)(F)O5)cc3c21 [Example 35, 8-(2,2-Difluoro-benzo[1,3]dioxol-4-yl)-1-(1,3-dimethyl-1H-pyrazol-4-yl)-3-methyl-1,3-dihydro-imidazo[4,5-c]quinolin-2-one]
219 |  | 213 | 3 (≈ 8.12 µM) | Cc1nn(C)cc1-n1c(=O)n(C)c2cnc3ccc(-c4ccccc4)cc3c21 [Example 37.1, 1-(1,3-Dimethyl-1H-pyrazol-4-yl)-3-methyl-8-phenyl-1,3-dihydro-imidazo[4,5-c]quinolin-2-one]
362 |  | 19 | 41 (≈ 93.1 µM) | Cc1nn(CC(=O)N(C)C)cc1-n1c(=O)n(C)c2cnc3ccc(-c4ccccc4)cc3c21 [Example 37.3, N,N-Dimethyl-2-[3-methyl-4-(3-methyl-2-oxo-8-phenyl-2,3-dihydro-imidazo[4,5-c]quinolin-1-yl)-pyrazol-1-yl]-acetamide]
138 | 2 (≈ 4.47 µM) | 71 |  | Cc1nn(C)cc1-n1c(=O)n(C)c2cnc3ccc(-c4cccc(S(C)(=O)=O)c4)cc3c21 [Example 40, 1-(1,3-Dimethyl-1H-pyrazol-4-yl)-8-(3-methanesulfonyl-phenyl)-3-methyl-1,3-dihydro-imidazo[4,5-c]quinolin-2-one]
92 |  | 5 | 14 (≈ 33.9 µM) | Cc1nn(C)cc1-n1c(=O)n(C)c2cnc3ccc(-c4ccc(C(N)=O)cc4)cc3c21 [Example 41, 4-[1-(1,3-Dimethyl-1H-pyrazol-4-yl)-3-methyl-2-oxo-2,3-dihydro-1H-imidazo[4,5-c]quinolin-8-yl]-benzamide]
489 |  | 231 | 8 (≈ 19.4 µM) | Cc1nn(C)cc1-n1c(=O)n(C)c2cnc3ccc(-c4cccc(C(N)=O)c4)cc3c21 [Example 46, 3-[1-(1,3-Dimethyl-1H-pyrazol-4-yl)-3-methyl-2-oxo-2,3-dihydro-1H-imidazo[4,5-c]quinolin-8-yl]-benzamide]
